{
  "source": "patent US7754748B2",
  "about": "“Method for treating obesity” (Duke University, priority 2002, dated 2010)",
  "key": {"[1]": {"experiment": "Example 2 case: obese person, bupropion then zonisamide added", "type": "in vivo, human", "procedure": "At this point, zonisamide was added to the regimen at 100 mg/day and the dose was increased after 2 weeks to 200 mg/day. […] No further information is available as the patient has relocated."}, "[2]": {"experiment": "16-week randomized, double blind acute phase, zonisamide vs placebo in obese subjects", "type": "in vivo, human", "from_the_text": "Sixty-eight subjects were screened for participation and 60 subjects were randomized.\nInclusion criteria were: male or female, aged 21-50 years, with body mass index (BMI) of ≧30 kg/m^2.\n(§1) The study had two phases. The first was the acute phase—a 16-week, randomized, double blind, parallel-group comparison of zonisamide (ZON) and placebo (PBO). This was followed by an optional 16-week extension phase. At the end of the acute phase, subjects wishing to continue further received the same treatment for an additional 16 weeks in a single-blinded fashion.\nThe subjects were randomized in a 1:1 ratio to receive zonisamide or placebo capsules. Study medication was dispensed under blinded conditions through computer-based randomization. The randomization was generated using a random number table with a block size of ten. There was no stratification by gender or other demographics. The study investigators were blind to the “blocking” method used by the pharmacy. The treatment assignment codes were not available to the investigators until all subjects completed the acute phase, the data were entered, and the database for this phase was locked, meaning that no further changes could be made to the data.\nThe study medication was dispensed in the form of capsules. Each capsule contained either 100 milligrams zonisamide or placebo. The capsules were made to look identical. The dose escalation was as follows: one capsule (zonisamide 100 mg or placebo) every evening for the first 2 weeks; two capsules (zonisamide 200 mg or placebo) every evening during Weeks 3 and 4; three capsules (zonisamide 300 mg or placebo) every evening during Weeks 5 and 6; and, four capsules (zonisamide 400 mg or placebo) every evening from Week 7 onward. At Week 12, the dose could be increased further to six capsules (zonisamide 600 mg or placebo) every evening for subjects who had not lost at least 5% of their initial body weight. If a subject preferred not to take all six capsules at one time, taking a half of the daily dose in the morning was an option. Based on tolerability, dose escalation could be withheld, or the dose might also be decreased. Medication compliance was overseen by recording the number of tablets returned and comparing this number to the number of capsules dispensed at each visit.\nSubjects in both treatment groups were instructed to follow an individual diet that was 500 Kcal/day less than what they needed to maintain their weight. The prescribed diet, based on eating a variety of foods from the Food Guide Pyramid, emphasized decreasing portions, eating more fruits and vegetables, and drinking 8 cups of water each day. Increased physical activity was also encouraged for subjects in both groups. Subjects were asked to record their dietary intake including portion sizes in food diaries, which were provided to them. A registered dietician reviewed food diaries and provided counseling to all subjects. Subjects were encouraged to make healthy changes in their diets and physical activity that could be maintained after the completion of the study.\n(§2) During each visit, the following assessments were performed: blood pressure, heart rate, weight, dietary compliance, medication accountability and tolerability, and adverse effects. Body weight was measured on a calibrated electronic scale to the nearest 0.1 kilogram. A registered dietitian reviewed food diaries and assessed dietary compliance. Adverse effects were gathered via spontaneous reporting by subjects as well as open-ended inquiries by the clinicians.\nIn addition to the above, the subjects completed the Impact of Weight on Quality of Life (IWQOL) (Kolotin et al, Obesity Res. 3:49-56 (1995)) at baseline, Week 8, and Week 16. The IWQOL is a self-report measure with 74 items that assess the perceived effect of weight on quality of life in the following domains (subscales)—health, social/interpersonal life, work, mobility, self-esteem, sexual life, activities of daily living, and eating (comfort with food). […]"}, "[3]": {"experiment": "optional 16-week single-blinded extension phase (to Week 32), zonisamide vs placebo in obese subjects", "type": "in vivo, human", "details": "for mean weight loss at Week 32: placebo 1.82% (0.73%)", "procedure": "as §1, §2\nIn addition to the above, the subjects completed the Impact of Weight on Quality of Life (IWQOL) (Kolotin et al, Obesity Res. 3:49-56 (1995)) at baseline, Week 8, and Week 16. The IWQOL is a self-report measure with 74 items that assess the perceived effect of weight on quality of life in the following domains (subscales)—health, social/interpersonal life, work, mobility, self-esteem, sexual life, activities of daily living, and eating (comfort with food). Improvement with treatment is reflected by decreasing scores on all the subscales with the exception of the eating (comfort with food) subscale, which is expected to show less comfort around food with effective treatment. Body composition (fat and lean masses) and bone mineral density (BMD) were determined, at baseline and Week 32, by dual x-ray absorptiometry (DXA; Hologic 2000, Waltham, Mass.). All DXA measurements were gathered using the same equipment and techniques. Subjects were instructed to fast for 8 hours and not to drink water or other beverages for at least 4 hours prior to DXA measurement.\nWeight change during the study was assessed in terms of actual weight change over the six study intervals using multivariable regression methodology, and as a dichotomous outcome of ‘response,’ i.e., 5% weight loss at Week 16, and 5% and 10% weight loss at Week 32. The proxy variables denoting response status were tested across treatment conditions again using Fisher's exact test. Three multivariable regression analyses were conducted. In the first, body weight at each time point was modeled using a random effects growth curve model. Heuristically, the model fits a regression line for each subject using available data points, thus maximizing use of actual data. For the second set of analyses, body weights were regressed as above with missing observations carried forward from the last recorded weight based on an intent-to-treat approach (LOCF). The final model was restricted to the subset of respondents with no missing data (completers).\nSecondary analyses were conducted over three general areas of interest. In each case, analyses were based on 2×2 repeated measures ANOVAs that included time, drug condition, and their interaction (time-by-drug). The primary interest in each instance was to determine if subjects in the zonisamide condition were differentially affected relative to controls as operationally determined by testing the significance of the estimated interaction term. Tests in first area of interest focused on clinical indicators including levels of creatinine, glucose, triglycerides, high and low density lipoproteins (all assessed at baseline and study conclusion), waist measurements (baseline, Week 8 and Week 16), blood pressure (systolic and diastolic), and heart rate. The second general area of sampled quality of life indicators including activities of daily living, appetite, esteem, health, interpersonal relations, mobility, sex, and work using the IWQOL Scale; repeated measurements were taken at baseline, Week 8, and Week 16). The final set of secondary analyses sampled hunger and appetite using the Visual Analogue Scale for Hunger and Food Cravings. […]"}, "[4]": {"experiment": "Example 3 case: obese person, zonisamide then bupropion SR added", "type": "in vivo, human", "procedure": "An obese person (weight 246 lb, BMI 41.4 kg/m^2) who had not benefited from various treatments, was started on zonisamide 100 mg/day and the dose was increased gradually to 400 mg a day over the next 4 weeks. […] At this point, zonisamide dose was increased to 600 mg a day; the patient achieved an additional weight loss of 0.6 lb in the next month. Thus, after 3 months of zonisamide therapy, the total weight loss with zonisamide therapy was 5.2 lb. […] They reported that they felt “full” after eating small portions of food, and had more energy."}, "[5]": {"experiment": "Example 4 case: obese person, zonisamide then bupropion added", "type": "in vivo, human", "procedure": "An obese person received zonisamide in a clinical trial and achieved weight loss of 35.6 lb over 32 weeks. During the 5 weeks following discontinuation of zonisamide, they gained 7.7 lb. Zonisamide was restarted, but this intervention was unsuccessful in offsetting the regained weight; after 16 weeks of therapy at doses up to 400 mg/d, the patient gained 1.2 lb."}, "[6]": {"experiment": "optional 16-week single-blinded extension phase (to Week 32), zonisamide vs placebo in obese subjects", "type": "in vivo, human", "details": "Week 32, versus placebo; p<0.0030, p<0.0651, p<0.0019, P<0.0005"}, "[7]": {"details": "epileptic patients taking other concomitant AEDs; small percent of patients; cited from earlier work"}},
  "data": [
    {"smiles": "CC(NC(C)(C)C)C(=O)c1cccc(Cl)c1", "note": "(centres unmarked) [bupropion]", "values": [
      {"measurement": "net weight loss", "setting": "[1]; after 2 months on bupropion", "result": 1.6, "unit": "lbs"},
      {"measurement": "weight lost", "setting": "[1]; after one month, bupropion 150 mg twice a day, start weight 271 lb", "result": 5, "unit": "lbs"},
      {"measurement": "weight regained", "setting": "[1]; during the second month on bupropion", "result": 3.4, "unit": "lbs"}
    ]},
    {"smiles": "NS(=O)(=O)Cc1noc2ccccc12", "note": "[zonisamide]", "values": [
      {"measurement": "heart rate change versus placebo", "setting": "[2]; 16 weeks, overall sample decreased approximately 2 beats/min", "result": "no difference between the groups"},
      {"measurement": "absolute weight at Week 16", "setting": "[2]; ITT-LOCF, baseline 98.17 (2.5) kg, placebo 97.75 to 96.86 kg", "result": "92.28 (2.47) kg"},
      {"measurement": "subjects achieving >=10% weight loss at Week 16", "setting": "[2]; ITT-LOCF, placebo 0/30, p<0.0053", "result": "7/30"},
      {"measurement": "subjects achieving >=5% weight loss at Week 16 (number)", "setting": "[2]; ITT-LOCF, placebo 3 of 30, p<0.0003", "result": "17 of 30"},
      {"measurement": "subjects achieving >=5% weight loss at Week 16 (percent)", "setting": "[2]; ITT-LOCF, placebo 10%", "result": 57, "unit": "%"},
      {"measurement": "predicted weight loss per week (drug-by-time interaction regression coefficient)", "setting": "[2]; LOCF intent-to-treat imputation", "result": 0.29, "unit": "kg/wk"},
      {"measurement": "mean (SE) estimated weight loss", "setting": "[2]; Week 16, ITT analysis with LOCF, n=30, placebo 1.02% (0.40%), p<0.0001", "result": 5.98, "unit": "%"},
      {"measurement": "serum creatinine after treatment", "setting": "[2]; acute phase, baseline 0.79 (0.03) mg/dL, placebo 0.76 to 0.79", "result": "0.92 (0.03) mg/dL"},
      {"measurement": "systolic and diastolic blood pressure readings", "setting": "[2]; by four months", "result": "did not change"},
      {"measurement": "weight loss, subjects completing the 16-week acute phase", "setting": "[2]; completers, Week 16, placebo 1.30% (0.49%)", "result": 6.61, "unit": "%"},
      {"measurement": "predicted weight loss per week (drug-by-time interaction regression coefficient)", "setting": "[2]; likelihood imputed model, versus placebo", "result": "> 0.3", "unit": "kg"},
      {"measurement": "predicted weight loss per week (drug-by-time interaction regression coefficient)", "setting": "[2]; model based only on complete-data subjects", "result": 0.21, "unit": "kg/wk"},
      {"measurement": "increase in serum creatinine", "setting": "[2]; no further increase in the extension phase, no value exceeded upper limit of normal", "result": "approximately 16%"},
      {"measurement": "subjects reporting fatigue", "setting": "[2]; of 30, placebo 1, p<0.006", "result": 10, "unit": "subjects"},
      {"measurement": "adverse effects (AEs) reported per subject, average", "setting": "[2]; over the study period, placebo 1.6, p<0.125", "result": 2.1},
      {"measurement": "tolerability", "setting": "[2]; whole study", "result": "generally well tolerated"},
      {"measurement": "bone mineral density at lumbar vertebrae (L-BMD)", "setting": "[3]; DXA, baseline vs Week 32", "result": "did not change over time"},
      {"measurement": "total bone mineral density", "setting": "[3]; DXA, baseline vs Week 32, both groups, no difference between groups, not clinically significant", "result": "small, but statistically significant (p<0.017) increase"},
      {"measurement": "mean lipid values", "setting": "[3]; either treatment, significant reductions for some subjects", "result": "No clinically significant changes"},
      {"measurement": "serum creatinine after treatment", "setting": "[3]; extension phase subjects, baseline 0.78 (0.03) mg/dL, placebo 0.75 to 0.77", "result": "0.92 (0.03) mg/dL"},
      {"measurement": "estimated rate of occurrence of kidney stones", "setting": "[3]; for the duration of treatment in this study (approximately 8 months)", "result": "62.5 per 1000 patient-years of exposure"},
      {"measurement": "absolute weight at Week 32", "setting": "[3]; from 96.88 (3.01) kg, placebo 96.39 to 94.85 kg", "result": "87.64 (2.95) kg"},
      {"measurement": "subjects who lost >=10% weight at Week 32", "setting": "[3]; none of the placebo subjects, p<0.0004", "result": "Ten of 19"},
      {"measurement": "heart rate", "setting": "[3]; over 32 weeks", "result": "no significant change"},
      {"measurement": "mean weight loss at Week 32", "setting": "[3]", "result": 9.4, "unit": "%"},
      {"measurement": "mean weight loss at Week 32", "setting": "[3]; listed as Zonisamide", "result": 9.37, "unit": "%"},
      {"measurement": "total weight loss", "setting": "[4]; after 3 months of zonisamide therapy", "result": 5.2, "unit": "lb"},
      {"measurement": "weight lost", "setting": "[4]; after one month, zonisamide up to 400 mg a day, start weight 246 lb", "result": 4.6, "unit": "lbs"},
      {"measurement": "additional weight loss", "setting": "[4]; in the next month, zonisamide 600 mg a day", "result": 0.6, "unit": "lb"},
      {"measurement": "weight change during the second month", "setting": "[4]; zonisamide 400 mg a day", "result": "no further weight loss"},
      {"measurement": "weight gained on restarted therapy", "setting": "[5]; after 16 weeks of restarted zonisamide at doses up to 400 mg/d", "result": 1.2, "unit": "lb"},
      {"measurement": "weight gained following discontinuation", "setting": "[5]; during the 5 weeks following discontinuation of zonisamide", "result": 7.7, "unit": "lb"},
      {"measurement": "weight loss", "setting": "[5]; over 32 weeks, zonisamide in a clinical trial", "result": 35.6, "unit": "lb"},
      {"measurement": "Impact of Weight on Quality of Life (IWQOL): Health, Work, Mobility, Activities of Daily Living", "setting": "[6]", "result": "improved more significantly"},
      {"measurement": "weight loss observed as an adverse effect", "setting": "[7]", "result": "a small degree of weight loss"}
    ]}
  ]
}
